In patent US10758583B2, “Processed food and pharmaceutical composition having watermelon sprout-derived substances as main ingredients” (KINKI UNIVERSITY, priority 2016, dated 2020):

How the values were obtained:
[1] = system: human T-cell leukemia cell line Jurkat cell; assay: Growth of Jurkat cells, live cell count by trypan blue staining; format: cell-based; conditions: for growth inhibitory activity of isolated components on Jurkat cells: 10, 25 and 50 μM, cells counted after 24, 48, 72 hours (FIG. 7); for IC50: Homo sapiens, Jurkat, isolated components, FIG. 7, read-out: IC50 in the inhibition of the growth of the Jurkat cells
Procedure: A human T-cell leukemia cell line Jurkat cell was obtained from the Independent Administrative Institution RIKEN BioResource Center (Tsukuba-shi, Ibaraki-ken). The cell was cultured in a RPMI 1640 medium (Wako Pure Chemical Industries, Ltd., Osaka-shi, Osaka-fu) containing 10% fetal bovine serum (Thermo Fisher Scientifics, K.K., MA, USA), 100 U/mL penicillin, and 100 μg/mL streptomycin (both from Life Technologies, Carlsbad, Calif., USA) at 37° C. in an environment of 95% air and 5% CO2.
The Jurkat cells were adjusted to 1×10^5 cells/mL and seeded in a 24-well multi-well plate (Thermo Fisher Scientifics, K.K.) by 500 μL per well. […] At 24, 48, and 72 hours after the sample treatment, the cells were stained with trypan blue (Life Technologies) to count live cells using a hemacytometer.
These components were examined for the growth inhibitory effect on the Jurkat cells. The Jurkat cells were treated with each component at final concentrations of 10, 25, and 50 μM and the number of cells was counted after 24, 48, and 72 hours.

Cyclin A = assay: Western blot of Cyclin A protein expression in Jurkat cells in S phase; format: cell-based, human; conditions: Phytol(+) vs Phytol(−), n=5, p<0.01 (FIG. 9)
Text: Next, the growth inhibition of the Jurkat cells caused by phytol and lutein was further investigated. As shown in FIG. 6 and FIG. 7, the growth inhibition of the Jurkat cells was caused by the induction of the cell cycle arrest in the S phase during cell division. Thus, it was further investigated how phytol induced the cell cycle arrest in the S phase. Specifically, protein expression of a molecule that controls the S phase of the cell cycle was examined by a Western blot method. […] Results of Cyclin A and β-Actin are shown with a phytol treatment (Phytol(+)) and without a phytol treatment (Phytol(−)). Further, in FIG. 9(b), the result of the Western blot shown in FIG. 9(a) was subjected to background correction using an image analysis software imageJ and then subjected to a densitometry analysis to obtain a ratio of a band density of Cyclin A relative to that of β-Actin. In evaluating data, a value of Phytol(+) was calculated by taking a value of Phytol(−) as 1 and represented as a mean±standard deviation (n=5). Comparison between Phytol(−) and Phytol(+) was tested by a Tukey-Kramer method (p<0.01).

[2] = system: human normal lymphoid cell; assay: Effect on growth of human normal lymphoid cell (trypan blue count); format: cell-based; conditions: stated with reference to FIG. 8

| Compound | growth inhibitory activity of isolated components on Jurkat cells [1] | IC50 [1] | expression of Cyclin A (band relative to β-Actin) (Cyclin A) | growth inhibitory effect on the normal cell [2] |
| --- | --- | --- | --- | --- |
| CC(C)C/C=C/[C@@H](C)[C@H]1CC[C@H]2[C@@H]3CC=C4C[C@@H](O)CC[C@]4(C)[C@H]3CC[C@]12C [22-dehydrocholesterol] | hardly inhibited the growth of the Jurkat cells |  |  |  |
| CC1=C[C@H](O)CC(C)(C)[C@H]1/C=C/C(C)=C/C=C/C(C)=C/C=C/C=C(C)/C=C/C=C(C)/C=C/C1=C(C)C[C@@H](O)CC1(C)C [lutein] | significant growth inhibitory activity | 22.6 µM |  |  |
| C/C(=C\CO)CCC[C@H](C)CCC[C@H](C)CCCC(C)C [phytol, Phytol] | significant growth inhibitory activity | 12.8 µM | suppressed | does not exhibit the growth inhibitory effect |
